Source: patent US11286243B2 (GLOBAL BLOOD THERAPEUTICS, INC., priority 2018, dated 2022)

target: T1, human ferroportin (Homo sapiens, UniProt Q9NP59); assay: In-vitro ferroportin internalization assay (luciferase reporter); type: cell-based; details: average pEC50; stably-transfected CHO cell line expressing human ferroportin tagged to a luciferase reporter; 6 h incubation with test compounds
T1 construct: luciferase reporter (probably NanoLuc: read with the Nano-Glo Luciferase Assay System); expressed in transfected cells; host or cells: CHO cells, stably transfected, doxycycline-inducible expression
T1 sequence (Q9NP59 1-571): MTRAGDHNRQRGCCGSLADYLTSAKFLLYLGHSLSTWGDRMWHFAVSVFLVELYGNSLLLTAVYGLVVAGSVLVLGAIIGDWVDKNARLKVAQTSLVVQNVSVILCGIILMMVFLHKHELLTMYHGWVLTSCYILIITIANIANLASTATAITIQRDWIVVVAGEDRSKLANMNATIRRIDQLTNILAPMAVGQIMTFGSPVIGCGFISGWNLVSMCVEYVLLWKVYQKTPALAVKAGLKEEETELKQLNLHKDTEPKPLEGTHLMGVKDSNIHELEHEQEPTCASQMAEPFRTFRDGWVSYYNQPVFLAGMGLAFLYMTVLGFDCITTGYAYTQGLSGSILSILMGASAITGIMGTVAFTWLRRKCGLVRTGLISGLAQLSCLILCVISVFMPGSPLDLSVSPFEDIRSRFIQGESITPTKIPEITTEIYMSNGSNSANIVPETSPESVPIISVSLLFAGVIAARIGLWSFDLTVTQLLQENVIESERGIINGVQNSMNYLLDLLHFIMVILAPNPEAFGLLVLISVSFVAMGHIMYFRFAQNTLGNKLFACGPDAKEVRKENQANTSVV
Protocol: The protocol for this assay is generally as described in WO2018/128828, incorporated herein by reference in its entirety. Functional internalization of ferroportin protein was measured using a stably-transfected CHO cell line expressing the human ferroportin tagged to a luciferase reporter. Cells were plated for 24 h in the presence of ferric ammonium citrate (FAC). Ferroportin protein expression was induced with doxycycline for 24 h. The next day, the compounds were added. Test compounds were dissolved in DMSO. Cells were incubated with the test compounds for 6 h, and subsequently luciferase activity was measured using the Nano-Glo Luciferase Assay System and Glomax (Promega, Madison, Wis.).
The average pEC50 was determined for the test compounds.

Structure (SMILES)	pEC50
Oc1cccc(CNCCc2nc3c(NCc4ncccc4F)nccc3o2)c1 [Compound 54, 3-({[2-(4-{[(3-fluoropyridin-2-yl)methyl]amino}-[1,3]oxazolo[4,5-c]pyridin-2-yl)ethyl]amino}methyl)phenol]	5.1
Cc1nc(CCNCCc2nc3c(NCc4ncccc4F)ncnc3s2)[nH]c1C [Compound 55, 2-(2-{[2-(4,5-dimethyl-1H-imidazol-2-yl)ethyl]amino}ethyl)-N-[(3-fluoropyridin-2-yl)methyl]-[1,3]thiazolo[5,4-d]pyrimidin-7-amine]	7.6
Cc1cnc(CCNCCc2nc3c(NCc4ncccc4F)nccc3o2)[nH]1 [Compound 56, N-[(3-fluoropyridin-2-yl)methyl]-2-(2-{[2-(5-methyl-1H-imidazol-2-yl)ethyl]amino}ethyl)-[1,3]oxazolo[4,5-c]pyridin-4-amine]	6.7
Fc1cccnc1CNc1nccc2oc(CCNCCc3ncc(C(F)(F)F)[nH]3)nc12 [Compound 57, N-[(3-fluoropyridin-2-yl)methyl]-2-[2-({2-[5-(trifluoromethyl)-1H-imidazol-2-yl]ethyl}amino)ethyl]-[1,3]oxazolo[4,5-c]pyridin-4-amine]	5.4
Fc1cccnc1CNc1nccc2oc(CCNCCc3ncc[nH]3)nc12 [Compound 58]	5.7
Oc1cc2oc(CCNCCc3nc4ccccc4[nH]3)nc2c(NCc2ncccc2F)n1 [Compound 59, 2-(2-{[2-(1H-1,3-benzodiazol-2-yl)ethyl]amino}ethyl)-4-{[(3-fluoropyridin-2-yl)methyl]amino}-[1,3]oxazolo[4,5-c]pyridin-6-ol]	6.2
Fc1cccnc1CNc1ncnc2sc(CCNCCc3ncc(-c4cccnc4)[nH]3)nc12 [Compound 60, N-[(3-fluoropyridin-2-yl)methyl]-2-[2-({2-[5-(pyridin-3-yl)-1H-imidazol-2-yl]ethyl}amino)ethyl]-[1,3]thiazolo[5,4-d]pyrimidin-7-amine]	5.8
CC(CNCCc1nc2c(NCc3ncccc3F)nccc2o1)c1nc2ccccc2[nH]1 (stereo not shown) [Compound 61, 2-(2-{[2-(1H-1,3-benzodiazol-2-yl)propyl]amino}ethyl)-N-[(3-fluoropyridin-2-yl)methyl]-[1,3]oxazolo[4,5-c]pyridin-4-amine]	6.9
Fc1cccnc1CNc1nccc2oc(CCNCCc3ncc(Cc4ccccc4)[nH]3)nc12 [Compound 62]	7.7
Fc1cccnc1CNc1nccc2oc(CCNCCc3ncc(CC4CC4)[nH]3)nc12 [Compound 63, 2-[2-({2-[5-(cyclopropylmethyl)-1H-imidazol-2-yl]ethyl}amino)ethyl]-N-[(3-fluoropyridin-2-yl)methyl]-[1,3]oxazolo[4,5-c]pyridin-4-amine]	5.1
Cc1nc(CCNCCc2nc3c(NCc4ncccc4F)ncnc3s2)[nH]c1-c1ccccc1 [Compound 64, N-[(3-fluoropyridin-2-yl)methyl]-2-(2-{[2-(4-methyl-5-phenyl-1H-imidazol-2-yl)ethyl]amino}ethyl)-[1,3]thiazolo[5,4-d]pyrimidin-7-amine]	7
Fc1cccnc1CNc1ncnc2sc(CCNCCc3ncc(-c4ccccn4)[nH]3)nc12 [Compound 65, N-[(3-fluoropyridin-2-yl)methyl]-2-[2-({2-[5-(pyridin-2-yl)-1H-imidazol-2-yl]ethyl}amino)ethyl]-[1,3]thiazolo[5,4-d]pyrimidin-7-amine]	6.2

Results, then the compound that gave them:

pEC50	Structure (SMILES)
6.2	Fc1cccc(-c2cnc(CCNCCc3nc4c(NCc5ncccc5F)ncnc4s3)[nH]2)c1 [Compound 67, 2-[2-({2-[5-(3-fluorophenyl)-1H-imidazol-2-yl]ethyl}amino)ethyl]-N-[(3-fluoropyridin-2-yl)methyl]-[1,3]thiazolo[5,4-d]pyrimidin-7-amine]
5.8	Fc1ccc(-c2cnc(CCNCCc3nc4c(NCc5ncccc5F)ncnc4s3)[nH]2)cc1 [Compound 68, 2-[2-({2-[5-(4-fluorophenyl)-1H-imidazol-2-yl]ethyl}amino)ethyl]-N-[(3-fluoropyridin-2-yl)methyl]-[1,3]thiazolo[5,4-d]pyrimidin-7-amine]
5.2	Cc1ncc(-c2cc(CNCCc3nc4c(NCc5ncccc5F)ncnc4s3)c(Cl)s2)[nH]1 [Compound 69, 2-[2-({[2-chloro-5-(2-methyl-1H-imidazol-5-yl)thiophen-3-yl]methyl}amino)ethyl]-N-[(3-fluoropyridin-2-yl)methyl]-[1,3]thiazolo[5,4-d]pyrimidin-7-amine]
5.6	Cc1nc(-c2ccc(Cl)s2)c(CNCCc2nc3c(NCc4ncccc4F)ncnc3s2)[nH]1 [Compound 70, 2-[2-({[4-(5-chlorothiophen-2-yl)-2-methyl-1H-imidazol-5-yl]methyl}amino)ethyl]-N-[(3-fluoropyridin-2-yl)methyl]-[1,3]thiazolo[5,4-d]pyrimidin-7-amine]
5.2	Fc1cccnc1CNc1ncnc2sc(CC3CCCC(Cc4nc5ccccc5[nH]4)N3)nc12 (stereo not shown) [Compound 71, 2-({6-[(1H-1,3-benzodiazol-2-yl)methyl]piperidin-2-yl}methyl)-N-[(3-fluoropyridin-2-yl)methyl]-[1,3]thiazolo[5,4-d]pyrimidin-7-amine]
6.4	Fc1cccnc1CNc1ncnc2sc(CCNCCc3ncc(-c4ccc(Cl)s4)[nH]3)nc12 [Compound 72, 2-[2-({2-[5-(5-chlorothiophen-2-yl)-1H-imidazol-2-yl]ethyl}amino)ethyl]-N-[(3-fluoropyridin-2-yl)methyl]-[1,3]thiazolo[5,4-d]pyrimidin-7-amine]
7.6	Cc1nc(CCNCCc2nc3c(NCc4ncccc4F)nccc3s2)[nH]c1C [Compound 73, 2-(2-{[2-(4,5-dimethyl-1H-imidazol-2-yl)ethyl]amino}ethyl)-N-[(3-fluoropyridin-2-yl)methyl]-[1,3]thiazolo[4,5-c]pyridin-4-amine]
6.9	Fc1cccnc1CNc1nccc2oc([C@H](F)CNCCc3nc4ccccc4[nH]3)nc12 [Compound 74, 2-[(1R)-2-{[2-(1H-1,3-benzodiazol-2-yl)ethyl]amino}-1-fluoroethyl]-N-[(3-fluoropyridin-2-yl)methyl]-[1,3]oxazolo[4,5-c]pyridin-4-amine]
7.1	Fc1cccnc1CNc1nccc2oc([C@@H](F)CNCCc3nc4ccccc4[nH]3)nc12 [Compound 75, 2-[(1 S)-2-{[2-(1H-1,3-benzodiazol-2-yl)ethyl]amino}-1-fluoroethyl]-N-[(3-fluoropyridin-2-yl)methyl]-[1,3]oxazolo[4,5-c]pyridin-4-amine]
8.1	Cc1nc(CCNCCc2nc3c(NCc4ncccc4F)nc(O)nc3s2)[nH]c1C [Compound 76, 2-(2-{[2-(4,5-dimethyl-1H-imidazol-2-yl)ethyl]amino}ethyl)-7-{[(3-fluoropyridin-2-yl)methyl]amino}-[1,3]thiazolo[5,4-d]pyrimidin-5-ol]
7.8	Fc1cccnc1CNc1ncnc2sc([C@H](F)CNCCc3nc4ccccc4[nH]3)nc12 [Compound 77, 2-[(1R)-2-{[2-(1H-1,3-benzodiazol-2-yl)ethyl]amino}-1-fluoroethyl]-N-[(3-fluoropyridin-2-yl)methyl]-[1,3]thiazolo[5,4-d]pyrimidin-7-amine]
<5	Cc1nc(Cc2ccccc2)c(CNCCc2nc3c(NCc4ncccc4F)nccc3o2)[nH]1 [Compound 78, 2-(2-{[(4-benzyl-2-methyl-1H-imidazol-5-yl)methyl]amino}ethyl)-N-[(3-fluoropyridin-2-yl)methyl]-[1,3]oxazolo[4,5-c]pyridin-4-amine]
<5	Fc1cccnc1CNc1ncnc2sc(CCNCCc3ncc(-c4ccncc4)[nH]3)nc12 [Compound 79, N-[(3-fluoropyridin-2-yl)methyl]-2-[2-({2-[5-(pyridin-4-yl)-1H-imidazol-2-yl]ethyl}amino)ethyl]-[1,3]thiazolo[5,4-d]pyrimidin-7-amine]
<5	O=C(NCc1ccc2[nH]c(CCNCCc3nc4c(NCc5ncccc5F)ncnc4s3)nc2c1)c1ccc2c(c1)C1(OC2=O)c2ccc(O)cc2Oc2cc(O)ccc21 [Compound 80]
6.3	Fc1cccnc1CNc1nccc2oc(C(F)(F)CNCCc3nc4ccccc4[nH]3)nc12 [Compound 81, 2-(2-{[2-(1H-1,3-benzodiazol-2-yl)ethyl]amino}-1,1-difluoroethyl)-N-[(3-fluoropyridin-2-yl)methyl]-[1,3]oxazolo[4,5-c]pyridin-4-amine]
6.4	Fc1cccnc1CNc1nccc2sc([C@H](F)CNCCc3nc4ccccc4[nH]3)nc12 [Compound 82, 2-[(1R)-2-{[2-(1H-1,3-benzodiazol-2-yl)ethyl]amino}-1-fluoroethyl]-N-[(3-fluoropyridin-2-yl)methyl]-[1,3]thiazolo[4,5-c]pyridin-4-amine]
